Assays:
ClpP–αSyn interaction [1] = experiment: Co-immunoprecipitation of ClpP with αSyn constructs in HEK293T cell lysates; format: cell-based; settings: HEK293T lysates
Description: Myc-tagged WT- and A53T- αSyn, Myc-tagged ClpP, and Flag-tagged WT- and S153A- ClpP plasmids were self-constructed as previously described (Ref). To construct truncated-αSyn plasmids, pcDNA3.1(-) was digested with BsteII and XbaI, and ΔN-, ΔC- and ΔNAC-αSyn was PCR-amplified using self-designed primers and inserted into the plasmid backbone. Cells were transfected with TransIT-2020 (Mirus Bio, LLC) following the manufacturer’s protocol.
Cells or tissues were lysed in total lysis buffer (50mM Tris-HCl, pH 7.5, 150mM NaCl, 1% Triton X-100, and protease inhibitor). Total protein lysates (800 µg) were incubated with the indicated antibodies overnight at 4 °C followed by the addition of protein A/G beads (sc-2003, Santa Cruz) for 2 h at 4 °C. Various recombinant αSyn and Clpp (500 ng) were incubated in in vitro interaction buffer (20mM Tris-HCl pH 7.5, 100mM KCl, 2mM MgCl2 and 0.1% Triton-X100) for 30 min at room temperature, and then incubated with indicated antibodies overnight at 4 °C followed by the addition of protein A/G beads for 2 h at 4 °C. The beads with immuno-precipitates were pulled down at 4000 g and washed four times with total lysis buffer/in vitro interaction buffer in the presence of 0.1% Triton X-100 and were analyzed by western blot analysis.
Shown are representative blots of 3 independent experiments. Quantification of the ratio of αSyn over ClpP (pull-down) (n = 4, two-tailed Student’s t test, data are mean ± SEM).

ClpP (SH-SY5Y cells) = experiment: ClpP protein level, western blot, SH-SY5Y cells; format: cell-based
αSyn monomer = αSyn monomer ELISA, Tet-inducible αSyn SH-SY5Y cells; format: cell-based, human; settings: vs TAT
Description: After one day incubation with doxycycline (1µM), αSyn tet-on inducible expression SHSY5Y cells were treated with TAT or CS2 peptides at 10 µM for another two days. The level of αSyn monomer released into culture medium was measured using LEGEND MAX human αSyn ELISA kit (448607, Biolegend). The level of extracellular and intracellular αSyn oligomers was measured using human alpha synuclein oligomer ELISA kit (MBS730762, Mybioresource).

ClpP–αSyn interaction [2] = experiment: ClpP–αSyn proximity ligation assay in iPSC-derived neurons; format: cell-based, human; settings: A53T-αSyn neurons; 1 µM, five days; n = 20 images per group
Source text: PD iPS cells lines (αSyn A53T, NN0004337, donor) and its isogenic corrected control line (NN0004344) were obtained from RUCDR Infinite Biologics. The iPS cells were differentiated into dopaminergic neuron-enriched neuronal culture with the protocol described previously. Briefly, iPS cell colonies were disassociated with accutase (Invitrogen), plated onto 6-well plates pre-coated with 2.5% Matrigel (BD Biosciences) and allowed to reach 80% confluence in mTeSR medium (Stem Cell Technology). For the first 10 days, cells were treated with SB431542 (10 µM; Tocris Bioscience) and Noggin (100 ng/ml) in Neural Media (NM) with FGF2 ([…]) and EGF ([…]). NM media contained: Neurobasal and DMEM/F12 (1:1), B-27 Supplement Minus Vitamin A (50×, Invitrogen), N2 Supplement (100X, Invitrogen), GlutaMAX (Invitrogen, 100×), 100 units/ml penicillin and 100 µg/ml streptomycin (Fisher); for the next 4 days, cells were treated with human recombinant Sonic hedgehog (SHH, 200 ng/ml) in neuronal differentiation medium. Neuronal differentiation medium contained Neurobasal and DMEM/F12 (1:3), B27, N2, GlutaMax and PS. […]
Proximity ligation assay (PLA) was performed using the Duolink® In Situ Starter Kit with Detection Reagents Green (mouse/rabbit; DUO92101, DUO92014). […] PLA puncta were detected as distinct fluorescent spots and imaged by confocal microscopy (Fluoview FV3000; Olympus). […]

## CC(C)[C@H](NC(=O)CNC(=O)CNC(=O)CCCCCNC(=O)[C@H](CCCNC(=N)N)NC(=O)[C@H](CCCNC(=N)N)NC(=O)[C@H](CCCNC(=N)N)NC(=O)[C@H](CCC(N)=O)NC(=O)[C@H](CCCNC(=N)N)NC(=O)[C@H](CCCNC(=N)N)NC(=O)[C@H](CCCCN)NC(=O)[C@H](CCCCN)NC(=O)[C@H](CCCNC(=N)N)NC(=O)CNC(=O)[C@@H](N)Cc1ccc(O)cc1)C(=O)N[C@H](C(=O)N[C@H](C(=O)N[C@@H](C)C(=O)O)[C@@H](C)O)C(C)C [CS2, TAT-C6-GGVVTA]
ClpP–αSyn interaction [1]; Flag-ClpP + Myc-ΔC-αSyn
  ClpP binding to ΔC-αSyn: abolished
ClpP–αSyn interaction [1]; Flag-ClpP + Myc-ΔN-αSyn
  ClpP binding to ΔN-αSyn: abolished
ClpP–αSyn interaction [1]; WT αSyn, CS2: 24-hour treatment
  ClpP binding to WT-αSyn: abolished
ClpP (SH-SY5Y cells); Tet-inducible αSyn-expressing SH-SY5Y, vs TAT, n = 3
  ClpP level, Tet-inducible αSyn SH-SY5Y: marked increase in ClpP levels
ClpP (SH-SY5Y cells); WT or A53T αSyn overexpression, 30 min pretreatment, n = 4–5 (CS1: n = 4)
  ClpP protein level, SH-SY5Y: significantly restored ClpP protein levels
αSyn monomer; 10 µM, two days, ELISA, n = 4
  extracellular αSyn monomer: decreased levels
αSyn monomer
  intracellular αSyn monomer: decreased levels
ClpP–αSyn interaction [2]
  ClpP–αSyn interaction by PLA: markedly reduced the ClpP–αSyn interaction
